Calls of active or inactive are those of the source.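 The calls were made as follows: active = maximal percent inhibition of the deubiquitinase OTUD3 of at least 30% across the tested doses; inactive = the rest.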
Biological target: OTU domain-containing protein 3 (Homo sapiens) (UniProt Q5T2D3)
Test: Validation of screening hits, potency titration, in vitro enzymatic, OTU domain-containing protein 3 DUB inhibitors (AID 1645868)
Details: purified OTUD3, ubiquitin-rhodamine cleavage fluorescence, 2 h

Sequence of OTU domain-containing protein 3 (Homo sapiens) (Q5T2D3 whole entry, looked up, the tested form may be a part): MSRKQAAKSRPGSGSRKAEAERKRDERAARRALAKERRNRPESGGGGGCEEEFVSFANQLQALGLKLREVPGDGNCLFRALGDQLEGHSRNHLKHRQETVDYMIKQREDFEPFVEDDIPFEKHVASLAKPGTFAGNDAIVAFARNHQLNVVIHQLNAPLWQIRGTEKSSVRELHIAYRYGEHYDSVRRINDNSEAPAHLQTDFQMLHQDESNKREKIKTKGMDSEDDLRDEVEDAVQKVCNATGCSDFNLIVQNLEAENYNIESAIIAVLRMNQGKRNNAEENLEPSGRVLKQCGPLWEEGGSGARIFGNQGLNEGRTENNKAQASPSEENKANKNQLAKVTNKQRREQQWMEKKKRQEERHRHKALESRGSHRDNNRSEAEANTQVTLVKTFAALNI

SMILES | IC50
COc1cccc(NC(=O)CCc2c(C)nn(-c3cc(N4CCCCC4)ncn3)c2C)c1 | > 50 µM (inactive)
Fc1ccccc1Cc1nc(-c2ccc3nncn3c2)no1 | > 50 µM (inactive)
CCn1cnc2ccc(C(=O)NC3CC3)cc2c1=O | > 50 µM (inactive)
COc1cc2c(cc1OC)C(COc1ccccc1OC)N(C(=O)c1ccc3ccccc3c1)CC2 (centres undefined) | > 50 µM (inactive)
Cc1sc2nc(CN3CCCC3)nc(NCCc3ccc(Cl)cc3)c2c1C | > 50 µM (inactive)
COC(=O)c1c(C)[nH]c(C(=O)C(C)OC(=O)CCC2CCCC2)c1C (centres undefined) | > 50 µM (inactive)
CCC(C)c1ccc(O[C@@H]2O[C@@H]3COC(c4ccccc4)O[C@H]3[C@H](O)[C@H]2NC(C)=O)cc1 (some centres undefined) | 23.4 µM
CC(C)c1ccc(C(C(=O)NC2CCCCC2)N(C(=O)c2cnccn2)c2cccc(F)c2)cc1 (centres undefined) | 47.6 µM
Cn1ncc2c(=O)n(Cc3cccc(Cl)c3)cnc21 | > 50 µM (inactive)
COc1cc(NC(=O)COC(=O)Cn2cnc3ccccc32)cc(OC)c1 | > 50 µM (inactive)
CCc1ccc(-n2c(=O)c3ccccc3n(CC(=O)NCCC3=CCCCC3)c2=O)cc1 | 21.3 µM
O=C(NCc1ccc(F)cc1)C1CCCN(c2cnc3nccnc3c2)C1 (centres undefined) | > 50 µM (inactive)
Cc1ccc(Cn2cc(-c3noc(-c4ccncc4)n3)nn2)cc1 | > 50 µM (inactive)
COc1ccc(Cn2c(SCc3ccc(C(=O)NCCc4ccccc4)cc3)nc3ccncc32)cc1 | > 50 µM (inactive)
O=C(CSc1nc2cc(C(F)(F)F)ccc2s1)NCC(=O)c1ccccc1 | 22 µM
COc1ccc(CCNC(=O)c2cc(C3CC3)nc3c2cnn3C(C)C)cc1 | > 50 µM (inactive)
O=C1CC(C(=O)Nc2ccccc2Cl)n2nc(-c3ccccc3)cc2N1 (centres undefined) | 34 µM
CCOC(=O)c1ccc(NC(=O)C[n+]2cc(-c3ccc(Cl)cc3)n3c2CCC3)cc1 | > 50 µM (inactive)
Cc1ccc(-c2csc(-n3ncc(C(=O)N4CCN(C(=O)Nc5cccc6ccccc56)C(C)C4)c3C(C)C)n2)cc1 (centres undefined) | > 50 µM (inactive)
O=C(CCSc1ccc(Cl)cc1)c1cccs1 | 21.5 µM
CCn1cc(-c2nc(-c3ccccc3)no2)c(=O)c2cc(F)ccc21 | 18 µM
Cn1cc(-c2noc(Cc3cccc(C(F)(F)F)c3)n2)ccc1=O | > 50 µM (inactive)
COc1ccccc1N1CCN(C(=O)c2ccc3c(c2)N(Cc2cc(C)ccc2C)C(=O)c2ccccc2S3=O)CC1 (centres undefined) | > 50 µM (inactive)

SMILES | IC50
CC1=C(c2ccc(C)c(C)c2)S(=O)(=O)NC1=NCC(=O)NCCc1ccc(C)cc1 | > 50 µM (inactive)
CC(C)Oc1ccc(C(=O)Nc2cccc(S(=O)(=O)N3CCCC3)c2)cc1 | > 50 µM (inactive)
Cc1cccc(-n2nc(C)c3c2NC(=O)CC3C(=O)c2cc3ccccc3o2)c1 (centres undefined) | 32 µM
CC(=O)CN1CC2(CCN(Cc3ccc(F)cc3)CC2)COc2ccccc2S1(=O)=O | > 50 µM (inactive)
CC(C(=O)NCc1ccc2c(c1)OCO2)N1CCN(c2ccc(O)cc2)CC1 (centres undefined) | > 50 µM (inactive)
COc1cc2c(cc1NC(=O)c1ccc(-n3cnnn3)cc1)oc1ccccc12 | > 50 µM (inactive)
COc1cc2c(c3oc4cccc(O)c4c(=O)c13)C1C=COC1O2 (centres undefined) | > 50 µM (inactive)
Cc1nc(-c2ccc3c(c2)nnn3CCN2CCOCC2)no1 | > 50 µM (inactive)
NS(=O)(=O)c1ccc(NS(=O)(=O)c2ccc(NC(=O)Nc3ccc(Cl)cc3)cc2)cc1 | 38.2 µM
Cc1ccc(NC(=O)Cc2nnc3c(-c4nc(C5CC5)no4)cccn23)cc1 | 31.3 µM
O=C(NC1CCN(c2nc(-c3cccnc3)nc3ccccc23)CC1)c1cccnc1 | > 50 µM (inactive)
O=C(c1ccco1)N1CCN=C1SCc1ccccc1F | > 50 µM (inactive)
Cc1ccc(Cl)cc1NC(=O)COC(=O)c1ccc2ccccc2n1 | > 50 µM (inactive)
C=C1Nc2ccccc2C(=O)N1c1cccc(NC(=O)c2ccc(C)c(C)c2)c1 | > 50 µM (inactive)
Cc1ccc(C(=O)N2CCCC3(C2)Nc2cccnc2NC3=NC2CCCC2)s1 (centres undefined) | > 50 µM (inactive)
CCc1cccc(CC)c1NC(=O)COC(=O)c1cc2cccc(OC)c2oc1=O | 27.6 µM
COc1ccc(-c2nc(SCC(=O)Nc3ccc(C(C)=O)cc3)n[nH]2)cc1 | 18.3 µM
Cc1ccc2nc(N3CCc4ccccc4C3)c3nncn3c2c1 | > 50 µM (inactive)
O=C(NCc1ccc2c(c1)OCO2)c1cc2c(s1)-c1ccccc1OC2 | 21.7 µM
Cn1c2ccccc2c(=O)c2c(=O)n(Cc3ccccc3)c(-c3ccco3)nc21 | 1.55 µM
COc1ccc2nc(Nc3nc(-c4cnc(N5CCOCC5)nc4C)cc(=O)[nH]3)nc(C)c2c1 | > 50 µM (inactive)
Cc1ccc(NC(=O)/C=C/c2cccc(C(F)(F)F)c2)c(O)c1 | 30.5 µM
COc1ccc(-c2cc3c(=O)n(CC(=O)Nc4ccccc4F)ccn3n2)cc1OC | > 50 µM (inactive)

SMILES | IC50
CC(=O)c1ccc(N2C(=O)N(Cc3cccc([N+](=O)[O-])c3)c3ccccc3S2(=O)=O)cc1 | > 50 µM (inactive)
O=C(COC(=O)c1ccc(Cl)cc1)Nc1ccc2[nH]c(=O)[nH]c2c1 | 12.7 µM
COc1cc(/C=C/C(=O)OCC(=O)Nc2ccc([N+](=O)[O-])cc2OC)ccc1O | 24.4 µM
O=C(Cn1c(=O)n(Cc2ccccc2)c(=O)c2ncccc21)NCc1ccccc1Cl | > 50 µM (inactive)
CCn1c(COc2cccc(C(F)(F)F)c2)nnc1SCc1ccc(Cl)cc1 | 28.8 µM
COc1cccc2sc(N3CCN(c4nc5ccccc5s4)CC3)nc12 | > 50 µM (inactive)
Cc1cc(NC(=O)c2nnn(-c3ccccc3Cl)c2C)no1 | > 50 µM (inactive)
Cc1ccccc1C(=O)Nc1ccc(Cc2ccc(NC(=O)c3ccccc3C)c(O)c2)cc1O | > 50 µM (inactive)
CCCc1nc2sc3c(NCCCN4CCOCC4)ncnc3c2c2c1CCC2 | > 50 µM (inactive)
COc1cc(C(=O)Nc2ccc(-c3csc(C)n3)cc2)cc(OC)c1OC | > 50 µM (inactive)
O=C(COc1ccc(S(=O)(=O)N2CCOCC2)cc1)N1CCC(Cc2ccccc2)CC1 | > 50 µM (inactive)
CN1CCC(N(C)S(=O)(=O)c2ccc(NC(=O)c3cccc(OCc4ccccc4)c3)cc2)CC1 | > 50 µM (inactive)
O=C(NCc1cccc(NC(=O)C2CC2)c1)Nc1cccc2ccccc12 | 30.7 µM
Cn1nc(-c2nc(-c3ccccc3)no2)c2c1CCN(C(=O)C1CCCC1)C2 | > 50 µM (inactive)
CC(=O)c1ccc(NC(=O)CC2C(=O)Nc3nc4ccccc4n32)cc1 (centres undefined) | 37.2 µM
O=C(Cn1cc(C(=O)C(F)(F)F)c2ccccc21)N1CCc2ccccc21 | 4.98 µM
CNC(=O)c1cc2c(=O)n3cccc(C)c3nc2n1Cc1ccccc1 | > 50 µM (inactive)
O=C(Nc1oc2ccccc2c(=O)c1-c1ccc2c(c1)OCO2)C1CCCCC1 | > 50 µM (inactive)
O=c1c2ccccc2c(-c2nc(-c3ccncc3)no2)cn1-c1ccccc1 | > 5 µM (inactive)
Cc1ccc(-n2nc(C)c3c2NC(=O)CC3C(=O)c2cc3ccccc3o2)cc1C (centres undefined) | > 50 µM (inactive)
NC(=O)c1ccc(NC(=O)Cc2cc(-c3ccc(Cl)cc3)on2)cc1 | > 50 µM (inactive)
Cc1ccccc1NC(=O)C(C)n1c(=O)cc(-c2ccccc2)c2c(C)nn(C)c21 (centres undefined) | 38 µM
O=C(Nc1ccc2c(c1)OCCO2)c1ccc(N2CCCC2=O)cc1 | > 50 µM (inactive)

— PubChem BioAssay AID1645868 (Buhrlage Lab, Dana-Farber Cancer Institute and Novartis …, 2021)
